Test results reported in paper PMC10045483, “Comparative Pharmacokinetic Study of 5 Active Ingredients after Oral Administration of Zuogui Pill in Osteoporotic Rats with Different Syndrome Types” (International Journal of Analytical Chemistry, 2023).
Where two headings read alike, the source gives them in different places. Values belong to the compound of their own block, whether it stands above or below them.

Tests used:
[1] = Pharmacokinetic study of 5 compounds in rat plasma after oral administration of Zuogui Pill extract (HPLC-MS/MS, noncompartmental analysis); format: in vivo, Female Sprague-Dawley rats; conditions: oral Zuogui Pill extract 1.5 mL/100 g; for Cmax / Tmax / half-life / CL/F / MRT last / MRT inf: female, Sprague-Dawley, rat, po, 1.5 mL/100 g; for Cmax / Tmax / half-life / AUC0–t / AUC0–∞ / t 1/2: n = 6; for CL/F: n = 6, read-out: CL_F_obs (converted); for MRT last: n = 6, read-out: MRT0–t; for MRT inf: n = 6, read-out: MRT0–∞
Description: Female Sprague-Dawley rats (180–220 g) were purchased from Shanghai Laboratory Animal Centre (Shanghai, China). The rats were maintained in a standard environment (22 ± 1°C, 60 ± 10% relative humidity, and a 12 h light/dark cycle) for one week to acclimate and fed water and food ad libitum. Twenty-four rats were divided randomly into […] and treated through ovary enucleation to establish the model of osteoporosis. Ten weeks after operation, osteoporosis models of kidney-yang-deficiency and kidney-yin-deficiency were established by intramuscular injection of hydrocortisone (25 mg/kg) and intragastric administration of thyroxine suspension (160 mg/kg) for 10 days, respectively. The femur of two rats from each group was then stained with hematoxylin and eosin (H&E) to assess histopathological change. Also, the validation of osteoporosis kidney-yang-deficiency and kidney-yin-deficiency models was judged by detecting the level of cyclic adenosine monophosphate (cAMP) and cyclic guanosine monophosphate (cGMP) in rat plasma. Laboratory Animal Management and Ethics Committee of Zhejiang Chinese Medical University approved all animal treatments (ZSLL-2014-48).
One hundred microliters of plasma was mixed with 100 μL of the IS solution, followed by 700 μL of methanol:acetonitrile (1 : 1). After 2 min of vortex mixing, the mixture was spun for 15 min at 8000 rpm and 4°C. The supernatants were collected and dried in a high-purity N2 environment. The residues were redissolved in 100 μL methanol and centrifuged for 15 min at 13000 rpm and 4°C. Finally, an aliquot of 10 μL supernatants was used to conduct the analysis.
Four groups of rats were orally administered with Zuogui Pill extract at a dose of 1.5 mL/100 g. Then, 0.3 mL blood samples were collected from orbital veins at 0, 0.08, 0.17, 0.25, 0.5, 1, 2, 4, 6, 8, 12, and 24 h after administration, placed in an anticoagulant tube, and centrifuged for 15 min at 5000 rpm and 4°C. The plasma was prepared and stored at −20°C until analysis.
Phoenix WinNonlin 6.4 software was used to estimate pharmacokinetic parameters using noncompartmental analysis. Furthermore, SPSS 26 software was used to compute comparisons of the pharmacokinetic data among the four groups according to a one-way ANOVA. The results are presented as mean ± SD.

[2] = Stability of analytes in rat plasma (QC samples) under storage conditions; conditions: n = 5; for Stability, Room temperature for 4 h, Mean: 25°C; for Stability, Three freeze-thaw cycles, Mean: −20°C to 25°C
Description: QC samples at three levels using five replicates were used to evaluate the stability under the following conditions: 4 h at room temperature (25°C), 24 h in autosampler (4°C), and three freeze-thaw cycles (−20°C to 25°C).

[3] = osteoporosis rats (ovariectomized)
[4] = osteoporotic rats with kidney-yang-deficiency
[5] = osteoporotic rats with kidney-yin-deficiency
[6] = high QC (800, 16000, 3200, 400, 40 ng/mL in the same order)
[7] = low QC (2, 40, 8, 1, 0.1 ng/mL for chlorogenic acid, loganin, morroniside, aucubin, protocatechuic aldehyde)
[8] = middle QC (40, 800, 160, 20, 2 ng/mL in the same order)

Cmax ([1]; normal rats): 84.4 ± 32.2 ng/mL | Tmax ([1]; normal rats): 0.38 ± 0.14 h | half-life ([1]; normal rats): 5.97 ± 2.89 h | CL/F ([1]; normal rats): 22.6 mL/min/kg | MRT last ([1]; normal rats): 5.38 ± 2.01 h | MRT inf ([1]; normal rats): 8.58 ± 2.71 h | Cmax [1, 3]: 103 ± 23.6 ng/mL | Tmax [1, 3]: 0.17 h | half-life [1, 3]: 3.67 ± 0.78 h | CL/F [1, 3]: 26.5 mL/min/kg | MRT last [1, 3]: 3.06 ± 0.12 h | MRT inf [1, 3]: 5.62 ± 1.09 h | Cmax [1, 4]: 96 ± 24.2 ng/mL | Tmax [1, 4]: 0.25 h | half-life [1, 4]: 7.4 ± 1.68 h | CL/F [1, 4]: 38.8 mL/min/kg | MRT last [1, 4]: 2.95 ± 0.38 h | MRT inf [1, 4]: 11.7 ± 1.31 h | Cmax [1, 5]: 181 ± 30.7 ng/mL | Tmax [1, 5]: 0.25 h | half-life [1, 5]: 8.68 ± 2.92 h | CL/F [1, 5]: 16 mL/min/kg | MRT last [1, 5]: 7.32 ± 1.92 h | MRT inf [1, 5]: 14.1 ± 5.85 h | AUC0–t ([1]; normal rats): 170.50 ± 64.82 h∗ng/mL | AUC0–∞ ([1]; normal rats): 204.69 ± 68.61 h∗ng/mL | AUC0–t [1, 3]: 116.40 ± 11.00 h∗ng/mL | AUC0–∞ [1, 3]: 155.64 ± 24.54 h∗ng/mL | AUC0–t [1, 4]: 48.33 ± 14.05^∗∗ h∗ng/mL | AUC0–∞ [1, 4]: 111.33 ± 29.94 h∗ng/mL | AUC0–t [1, 5]: 201.40 ± 32.43^∗∗ h∗ng/mL | AUC0–∞ [1, 5]: 272.67 ± 70.63^∗∗ h∗ng/mL | Stability, Room temperature for 4 h, Mean [2, 6]: 92.8% | Stability, Room temperature for 4 h, Mean [2, 7]: 89.8% | Stability, Room temperature for 4 h, Mean [2, 8]: 91.3% | Stability, Autosampler at 4°C for 24 h, Mean [2, 6]: 90.2% | Stability, Autosampler at 4°C for 24 h, Mean [2, 7]: 88.6% | Stability, Autosampler at 4°C for 24 h, Mean [2, 8]: 92.5% | Stability, Three freeze-thaw cycles, Mean [2, 6]: 89.1% | Stability, Three freeze-thaw cycles, Mean [2, 7]: 84.2% | Stability, Three freeze-thaw cycles, Mean [2, 8]: 86.9%
Compound: OCC1=C[C@@H](O)[C@@H]2C=CO[C@@H](O[C@@H]3O[C@H](CO)[C@@H](O)[C@H](O)[C@H]3O)[C@H]12 [Aucubin, aucubin]

Cmax ([1]; normal rats): 346 ± 64 ng/mL | CL/F ([1]; normal rats): 15.2 mL/min/kg | MRT last ([1]; normal rats): 5.46 ± 0.48 h | MRT inf ([1]; normal rats): 8.17 ± 1.46 h | Cmax [1, 3]: 279 ± 56.3 ng/mL | Tmax [1, 3]: 0.26 ± 0.02 h | half-life [1, 3]: 6.38 ± 1.96 h | CL/F [1, 3]: 17.3 mL/min/kg | MRT last [1, 3]: 6.78 ± 0.68 h | MRT inf [1, 3]: 9.72 ± 2.61 h | Cmax [1, 4]: 430 ± 98.5 ng/mL | CL/F [1, 4]: 29.5 mL/min/kg | MRT last [1, 4]: 4.52 ± 1.46 h | MRT inf [1, 4]: 6.56 ± 2.64 h | Cmax [1, 5]: 354 ± 83.8 ng/mL | half-life [1, 5]: 6.61 ± 3.84 h | CL/F [1, 5]: 37.1 mL/min/kg | MRT last [1, 5]: 3.03 ± 0.38 h | MRT inf [1, 5]: 4.1 ± 1.02 h | AUC0–t ([1]; normal rats): 497.98 ± 34.72^∗ h∗ng/mL | AUC0–∞ ([1]; normal rats): 546.26 ± 38.80 h∗ng/mL | t 1/2 ([1]; normal rats): 8.17 ± 1.79 h | AUC0–t [1, 3]: 435.76 ± 59.78 h∗ng/mL | AUC0–∞ [1, 3]: 489.67 ± 77.69 h∗ng/mL | AUC0–t [1, 4]: 263.13 ± 40.25^∗∗ h∗ng/mL | AUC0–∞ [1, 4]: 284.31 ± 33.34^∗∗ h∗ng/mL | t 1/2 [1, 4]: 5.41 ± 1.84 h | AUC0–t [1, 5]: 218.55 ± 23.29^∗∗ h∗ng/mL | AUC0–∞ [1, 5]: 225.89 ± 25.03^∗∗ h∗ng/mL | Stability, Room temperature for 4 h, Mean [2, 6]: 85.7% | Stability, Room temperature for 4 h, Mean [2, 8]: 85.9% | Stability, Autosampler at 4°C for 24 h, Mean [2, 6]: 87.3% | Stability, Autosampler at 4°C for 24 h, Mean [2, 8]: 93.7% | Stability, Three freeze-thaw cycles, Mean [2, 6]: 80.9% | Stability, Three freeze-thaw cycles, Mean [2, 8]: 89.3%
Compound: O=C(/C=C/c1ccc(O)c(O)c1)O[C@@H]1C[C@](O)(C(=O)O)C[C@@H](O)[C@H]1O [Chlorogenic acid, chlorogenic acid]

Cmax ([1]; normal rats): 13500 ± 2030 ng/mL | Tmax ([1]; normal rats): 0.25 h | half-life ([1]; normal rats): 4.51 ± 0.45 h | CL/F ([1]; normal rats): 6.03 mL/min/kg | MRT last ([1]; normal rats): 4.58 ± 0.47 h | MRT inf ([1]; normal rats): 5.1 ± 0.41 h | Cmax [1, 3]: 8380 ± 1120 ng/mL | Tmax [1, 3]: 0.25 h | half-life [1, 3]: 2.74 ± 0.96 h | CL/F [1, 3]: 7.67 mL/min/kg | MRT last [1, 3]: 4.91 ± 1.29 h | MRT inf [1, 3]: 5.02 ± 1.34 h | Cmax [1, 4]: 14.7 ± 1.38 ng/mL | Tmax [1, 4]: 0.21 ± 0.05 h | half-life [1, 4]: 5.62 ± 1.63 h | CL/F [1, 4]: 4280 mL/min/kg | MRT last [1, 4]: 5.5 ± 0.67 h | MRT inf [1, 4]: 6.62 ± 0.49 h | Cmax [1, 5]: 16000 ± 2790 ng/mL | Tmax [1, 5]: 0.25 h | half-life [1, 5]: 3.75 ± 0.7 h | CL/F [1, 5]: 2.94 mL/min/kg | MRT last [1, 5]: 6.51 ± 0.91 h | MRT inf [1, 5]: 6.92 ± 0.98 h | AUC0–t ([1]; normal rats): 20134.29 ± 3958.79 h∗ng/mL | AUC0–∞ ([1]; normal rats): 20523.97 ± 3947.05 h∗ng/mL | AUC0–t [1, 3]: 17912.12 ± 6898.16 h∗ng/mL | AUC0–∞ [1, 3]: 17998.56 ± 6945.75 h∗ng/mL | AUC0–t [1, 5]: 41028.61 ± 6356.26^∗∗ h∗ng/mL | AUC0–∞ [1, 5]: 41727.10 ± 6203.34^∗∗ h∗ng/mL | Stability, Room temperature for 4 h, Mean [2, 6]: 85.6% | Stability, Room temperature for 4 h, Mean [2, 7]: 88.3% | Stability, Room temperature for 4 h, Mean [2, 8]: 87.4% | Stability, Autosampler at 4°C for 24 h, Mean [2, 6]: 84.4% | Stability, Autosampler at 4°C for 24 h, Mean [2, 7]: 94.6% | Stability, Autosampler at 4°C for 24 h, Mean [2, 8]: 85.8% | Stability, Three freeze-thaw cycles, Mean [2, 6]: 92.4% | Stability, Three freeze-thaw cycles, Mean [2, 7]: 86.4% | Stability, Three freeze-thaw cycles, Mean [2, 8]: 89.5%
Compound: COC(=O)C1=CO[C@@H](O[C@@H]2O[C@H](CO)[C@@H](O)[C@H](O)[C@H]2O)[C@@H]2[C@@H](C)[C@@H](O)C[C@H]12 [Loganin, loganin]
